PubChem BioAssay AID2060352 (Molecular Pharmacology Branch, DTP, NCI, 2025)

Test system: 616215-338-R-J1-PDC spheroid with HUVEC/MSC, viability
Test: Anticancer human tumor 616215-338-R-J1-PDC patient-derived colon adenocarcinoma cell line growth inhibition [TAK]
Details: for IC50: curve of first compound; for viability, T/C: stronger effect = lower value
Description: Combinatorial screen of targeted agents with TAK-243 and ipatasertib in multi-cell type tumor spheroids
A high-throughput screen of multi-cell type tumor spheroids was designed to identify active combinations of targeted small molecules and TAK-243 or ipatasertib. Complex spheroids include a stromal component modeled by human endothelial cells (HUVEC) and fibroblasts modeled by human mesenchymal stem cells (MSCs). The concentration ranges selected for each drug and investigational agent were based upon clinically achievable concentrations if the clinical Cmax of the agent was known.
Compounds. The drugs and investigational agents: TAK-243 (785004), ipatasertib (767898), everolimus (733504), selumetinib (741078), bortezomib (756655), trametinib (758246), ixazomib (758254), vemurafenib (761431), dabrafenib (764134), sapanisertib (764658), alpelisib (765974), and copanlisib (816437), were obtained from the National Cancer Institute (NCI) Developmental Therapeutics Program Chemical Repository. The FDA-approved anticancer drug set is available from the NCI Developmental Therapeutics Program. […] The stock solutions were prepared in dimethyl sulfoxide (DMSO, Sigma-Aldrich, St. Louis, MO, cat. D2650) at 800-fold the tested concentration and stored at -70 degrees C prior to their use. All drugs and investigational agents were tested over a range starting from a high concentration at or near the clinical Cmax and decreasing in half-log increments. If the clinical Cmax for an agent had not been determined, the highest concentration tested was 10 microM.
NCI60 Cell Culture. NCI60 cell lines were obtained from the NCI Developmental Therapeutics Program Tumor Repository. For each lot of cells, the Repository performed Applied Biosystems AmpFLSTR Identifiler testing with PCR amplification to confirm consistency with the published Identifier STR profile for each cell line. Cells were kept in continuous culture for no more than 20 passages. The optimal seeding densities for each of the cell lines at each time point assessed were determined prior to performing the concentration response studies. Briefly, the NCI60 human tumor lines were grown as monolayers in RPMI 1640 medium supplemented with 10% FBS and 2 mmol/L L-glutamine.
An additional 2 lines were from the NCI60 cell line panel including melanomas, MALME-3M and SK-MEL-2. Pooled donor human umbilical vein endothelial cells (HUVEC, Lonza, cat. CC-2519) and human mesenchymal stem cells (hMSC, Lonza, cat. PT-2501) were purchased from Lonza (Walkersville, MD).
PDMR cell lines were grown in complete medium (DC medium): Dulbecco's modified Eagle's medium (DMEM)/F12 supplemented with 5% fetal bovine serum (FBS), 2 mM L-glutamine, 100 U/mL penicillin and 100 µg/ml streptomycin, 0.4 µg/ml hydrocortisone, 10 ng/ml epidermal growth factor (EGF) recombinant human protein, 24 µg/mL adenine, and 0.1 mg/mL primocin. During culture from frozen stock vials, PDMR cells were cultured in the same medium containing 10 µM Y-27632 (see Table 3). The PDCs were cultured in complete DMEM/F12 media without 10 microM Y-27632 dihydrochloride for at least two passages prior to the screen. The pooled donor HUVEC and hMSC were cultured in endothelial cell growth medium 2 (PromoCell, Heidelberg, Germany, cat. C-22011) and mesenchymal stem cell growth medium 2 (PromoCell, cat. C-28009), respectively. For all experiments, HUVEC and hMSC were used at passages </=5.
For the pre-screen, cell seeding densities were determined from a titration spanning the range from 5,000 to 313 cells per well. The mct-spheroids including 60% malignant cells, 25% HUVEC and 15% MSC dispensed as a mixture into U-bottom Ultra-Low Attachment 384-well plates (Corning, NY)
High-throughput Drug Combination Screening.
Prior to their inoculation into 384-well plates, malignant cells, HUVEC, and hMSC were removed from T flasks using TrypLE express (Thermo Fisher Scientific, cat. 12605036) and harvested by centrifugation for 5 min at 233 x g. […]
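Further: spheroids exposed to drugs for 7 days before readout.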

For `CC(=O)Nc1cccc(-n2c(=O)n(C3CC3)c(=O)c3c(Nc4ccc(I)cc4F)n(C)c(=O)c(C)c32)c1` + CC(C)NCC(C(=O)N1CCN(c2ncnc3c2C(C)CC3O)CC1)c1ccc(Cl)cc1, the IC50 (second compound 0.3 µM) was 4.61 nM, the IC50 (second compound 0.949 µM) was 1.65 nM and the IC50 (second compound 3 µM) was 0.213 nM. It also gave an IC50 (second compound 9.49 µM) of less than 0.0949 nM, an IC50 (second compound 30 µM) of less than 0.0949 nM and a viability, T/C (second compound 0.3 µM, first compound 94.9 pM) of 131%. For the same compound, the viability, T/C (second compound 0.3 µM, first compound 0.0003 µM) was 132%, the viability, T/C (second compound 0.3 µM, first compound 0.000949 µM) was 125% and the viability, T/C (second compound 0.3 µM, first compound 0.003 µM) was 69.9%. The viability, T/C (second compound 0.3 µM, first compound 0.00949 µM) was 16.6%, the viability, T/C (second compound 0.3 µM, first compound 0.03 µM) was 3.1% and the viability, T/C (second compound 0.949 µM, first compound 94.9 pM) was 134%. For the same compound, the viability, T/C (second compound 0.949 µM, first compound 0.0003 µM) was 130%, the viability, T/C (second compound 0.949 µM, first compound 0.000949 µM) was 69.7% and the viability, T/C (second compound 0.949 µM, first compound 0.003 µM) was 28.1%. It also gave a viability, T/C (second compound 0.949 µM, first compound 0.00949 µM) of 9.36%, a viability, T/C (second compound 0.949 µM, first compound 0.03 µM) of 1.03% and a viability, T/C (second compound 3 µM, first compound 94.9 pM) of 57.9%. The viability, T/C (second compound 3 µM, first compound 0.0003 µM) was 47.6%, the viability, T/C (second compound 3 µM, first compound 0.000949 µM) was 25.3% and the viability, T/C (second compound 3 µM, first compound 0.003 µM) was 11.9%. For the same compound, the viability, T/C (second compound 3 µM, first compound 0.00949 µM) was 4.2%, the viability, T/C (second compound 3 µM, first compound 0.03 µM) was 0.83% and the viability, T/C (second compound 9.49 µM, first compound 94.9 pM) was 22%. The viability, T/C (second compound 9.49 µM, first compound 0.0003 µM) was 18.4%, the viability, T/C (second compound 9.49 µM, first compound 0.000949 µM) was 12.3% and the viability, T/C (second compound 9.49 µM, first compound 0.003 µM) was 6.63%. For the same compound, the viability, T/C (second compound 9.49 µM, first compound 0.00949 µM) was 2.23%, the viability, T/C (second compound 9.49 µM, first compound 0.03 µM) was 1.12% and the viability, T/C (second compound 30 µM, first compound 94.9 pM) was 10.7%. For the same compound, the viability, T/C (second compound 30 µM, first compound 0.0003 µM) was 9.94%, the viability, T/C (second compound 30 µM, first compound 0.000949 µM) was 6.33% and the viability, T/C (second compound 30 µM, first compound 0.003 µM) was 3.43%. It also gave a viability, T/C (second compound 30 µM, first compound 0.00949 µM) of 1.53% and a viability, T/C (second compound 30 µM, first compound 0.03 µM) of 1.15%.

`CC(C)CC(NC(=O)C(Cc1ccccc1)NC(=O)c1cnccn1)B(O)O` (stereo not given) + CC(C)NCC(C(=O)N1CCN(c2ncnc3c2C(C)CC3O)CC1)c1ccc(Cl)cc1 showed an IC50 (second compound 0.3 µM) greater than 10 nM, an IC50 (second compound 0.949 µM) greater than 10 nM and an IC50 (second compound 3 µM) of 5.34 nM. The IC50 (second compound 9.49 µM) was less than 0.0316 nM, the IC50 (second compound 30 µM) was less than 0.0316 nM and the viability, T/C (second compound 0.3 µM, first compound 31.6 pM) was 90.8%. For the same compound, the viability, T/C (second compound 0.3 µM, first compound 0.0001 µM) was 99.2%, the viability, T/C (second compound 0.3 µM, first compound 0.000316 µM) was 90.8% and the viability, T/C (second compound 0.3 µM, first compound 0.001 µM) was 95.1%. It also gave a viability, T/C (second compound 0.3 µM, first compound 0.00316 µM) of 96.6%, a viability, T/C (second compound 0.3 µM, first compound 0.01 µM) of 112% and a viability, T/C (second compound 0.949 µM, first compound 31.6 pM) of 114%. It also gave a viability, T/C (second compound 0.949 µM, first compound 0.0001 µM) of 109%, a viability, T/C (second compound 0.949 µM, first compound 0.000316 µM) of 121% and a viability, T/C (second compound 0.949 µM, first compound 0.001 µM) of 112%. For the same compound, the viability, T/C (second compound 0.949 µM, first compound 0.00316 µM) was 111%, the viability, T/C (second compound 0.949 µM, first compound 0.01 µM) was 80.3% and the viability, T/C (second compound 3 µM, first compound 31.6 pM) was 81.1%. The viability, T/C (second compound 3 µM, first compound 0.0001 µM) was 88.7%, the viability, T/C (second compound 3 µM, first compound 0.000316 µM) was 88.7% and the viability, T/C (second compound 3 µM, first compound 0.001 µM) was 80.9%. The viability, T/C (second compound 3 µM, first compound 0.00316 µM) was 84.8%, the viability, T/C (second compound 3 µM, first compound 0.01 µM) was 8.39% and the viability, T/C (second compound 9.49 µM, first compound 31.6 pM) was 33.9%. It also gave a viability, T/C (second compound 9.49 µM, first compound 0.0001 µM) of 35.2%, a viability, T/C (second compound 9.49 µM, first compound 0.000316 µM) of 26.4% and a viability, T/C (second compound 9.49 µM, first compound 0.001 µM) of 29.8%. The viability, T/C (second compound 9.49 µM, first compound 0.00316 µM) was 32.2%, the viability, T/C (second compound 9.49 µM, first compound 0.01 µM) was 0.75% and the viability, T/C (second compound 30 µM, first compound 31.6 pM) was 15.3%. For the same compound, the viability, T/C (second compound 30 µM, first compound 0.0001 µM) was 15.2%, the viability, T/C (second compound 30 µM, first compound 0.000316 µM) was 14.1% and the viability, T/C (second compound 30 µM, first compound 0.001 µM) was 13.2%. It also gave a viability, T/C (second compound 30 µM, first compound 0.00316 µM) of 15.1% and a viability, T/C (second compound 30 µM, first compound 0.01 µM) of 0.24%.
